Reference: patent US9296723B2, “NAMPT inhibitors” (AbbVie Inc., priority 2012, dated 2016)

Experiments:
NAMPT [1] = molecular target: T1, NAMPT (Homo sapiens, UniProt P43490); test: Time-Resolved Fluorescence Resonance Energy Transfer (TR-FRET) Binding Assay of NAMPT; details: 6.8 nM NAMPT, 200 nM probe, equilibrated 3 hours, no substrates
Summary of the method: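 Compound was mixed with enzyme, probe and antibody and equilibrated 3 h at room temperature. TR-FRET read at Ex 337 nm, Em 520/495 nm. Ratios were normalized to controls and fitted to a four-parameter logistic equation for IC50.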

NAMPT [2] = molecular target: T1, NAMPT; test: TR-FRET Binding Assay of NAMPT with PRPP; details: 2 nM NAMPT, 2 nM probe, 200 µM PRPP and 2.5 mM ATP, equilibrated 16 hours
Summary of the method: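 TR-FRET probe displacement with 2 nM NAMPT, 2 nM probe and 1 nM Tb-anti-His antibody in the presence of 200 µM PRPP and 2.5 mM ATP, 2% DMSO (all final). Equilibrated 16 hours before reading to permit possible enzymatic modification of compounds.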

PC3 cells = test: NAMPT Cell Proliferation Assay (Cell Titer Glo); type: cell-based; details: Homo sapiens, PC-3, 120 h, incubated 5 days, cell viability
Summary of the method: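 PC3 cells (500/well, RPMI with 10% heat-inactivated FBS) were exposed to 10-fold compound dilutions from […] for 5 days at 37 °C, 5% CO2. Viability was read with Cell Titer Glo; IC50 from sigmoidal fit of percent inhibition.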

T1 sequence (P43490 whole entry): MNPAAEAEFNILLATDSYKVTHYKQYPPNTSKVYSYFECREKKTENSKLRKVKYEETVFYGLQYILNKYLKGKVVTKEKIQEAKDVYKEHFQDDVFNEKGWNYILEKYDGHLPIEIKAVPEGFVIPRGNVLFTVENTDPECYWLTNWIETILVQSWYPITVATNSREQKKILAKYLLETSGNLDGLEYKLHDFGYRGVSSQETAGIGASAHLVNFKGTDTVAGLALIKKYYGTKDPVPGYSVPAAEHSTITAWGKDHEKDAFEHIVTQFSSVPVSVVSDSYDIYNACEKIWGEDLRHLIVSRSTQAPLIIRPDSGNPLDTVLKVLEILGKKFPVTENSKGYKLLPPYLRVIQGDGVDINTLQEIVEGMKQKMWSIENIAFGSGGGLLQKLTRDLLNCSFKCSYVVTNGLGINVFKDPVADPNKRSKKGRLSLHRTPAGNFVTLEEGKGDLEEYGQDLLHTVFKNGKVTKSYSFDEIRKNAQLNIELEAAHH

Structure (SMILES) | IC50 (NAMPT [1]) | IC50 (NAMPT [2]) | IC50 (PC3 cells)
O=C(Nc1ccc(C2CN(CC3CCCO3)C2)cc1)N1CC(c2cccnc2)C1 (stereo not drawn) [Example 250, 3-(pyridin-3-yl)-N-{4-[1-(tetrahydrofuran-2-ylmethyl)azetidin-3-yl]phenyl}azetidine-1-carboxamide] | 865 nM | 0.679 nM | 664 nM
CC(C)CN1CC(c2ccc(NC(=O)N3CC(c4cccnc4)C3)cc2)C1 [Example 251, N-{4-[1-(2-methylpropyl)azetidin-3-yl]phenyl}-3-(pyridin-3-yl)azetidine-1-carboxamide] | 382 nM | 0.365 nM | 212 nM
CC(C)CCN1CC(c2ccc(NC(=O)N3CC(c4cccnc4)C3)cc2)C1 [Example 252, N-{4-[1-(3-methylbutyl)azetidin-3-yl]phenyl}-3-(pyridin-3-yl)azetidine-1-carboxamide] | 526 nM | 0.296 nM | 401 nM
CCC(CC)CN1CC(c2ccc(NC(=O)N3CC(c4cccnc4)C3)cc2)C1 [Example 253, N-{4-[1-(2-ethylbutyl)azetidin-3-yl]phenyl}-3-(pyridin-3-yl)azetidine-1-carboxamide] | 538 nM | 0.207 nM | 622 nM
CCC(C)CN1CC(c2ccc(NC(=O)N3CC(c4cccnc4)C3)cc2)C1 (stereo not drawn) [Example 255, N-{4-[1-(2-methylbutyl)azetidin-3-yl]phenyl}-3-(pyridin-3-yl)azetidine-1-carboxamide] | 271 nM | 0.173 nM | 734 nM
CCCCC(=O)N1CCC(c2ccc(NC(=O)N3CC(c4cccnc4)C3)cc2)C1 (stereo not drawn) [Example 258, N-[4-(1-pentanoylpyrrolidin-3-yl)phenyl]-3-(pyridin-3-yl)azetidine-1-carboxamide] | 52.4 nM | 0.359 nM | 68.3 nM
CCC(C)CC(=O)N1CCC(c2ccc(NC(=O)N3CC(c4cccnc4)C3)cc2)C1 (stereo not drawn) [Example 259, N-{4-[1-(3-methylpentanoyl)pyrrolidin-3-yl]phenyl}-3-(pyridin-3-yl)azetidine-1-carboxamide] | 54.5 nM | 0.452 nM | 64.7 nM
O=C(CC1C[C@@H]2CC[C@H]1C2)N1CCC(c2ccc(NC(=O)N3CC(c4cccnc4)C3)cc2)C1 (stereo partly drawn) [Example 260, N-(4-{1-[(1S,4R)-bicyclo[2.2.1]hept-2-ylacetyl]pyrrolidin-3-yl}phenyl)-3-(pyridin-3-yl)azetidine-1-carboxamide] | 38.4 nM | 0.302 nM | 94.9 nM
O=C(CC1CCCC1)N1CCC(c2ccc(NC(=O)N3CC(c4cccnc4)C3)cc2)C1 (stereo not drawn) [Example 261, N-{4-[1-(cyclopentylacetyl)pyrrolidin-3-yl]phenyl}-3-(pyridin-3-yl)azetidine-1-carboxamide] | 33.5 nM | 0.194 nM | 71.3 nM
CC1CC1C(=O)N1CCC(c2ccc(NC(=O)N3CC(c4cccnc4)C3)cc2)C1 (stereo not drawn) [Example 262, N-(4-{1-[(2-methylcyclopropyl)carbonyl]pyrrolidin-3-yl}phenyl)-3-(pyridin-3-yl)azetidine-1-carboxamide] | 60.4 nM | 0.252 nM | 51.6 nM

The remaining lines, values ahead:

IC50 (NAMPT [1]) | IC50 (NAMPT [2]) | IC50 (PC3 cells) | Structure (SMILES)
143 nM | 0.239 nM | 365 nM | O=C(CN1CCOCC1)N1CCC(c2ccc(NC(=O)N3CC(c4cccnc4)C3)cc2)C1 (stereo not drawn) [Example 263, N-{4-[1-(morpholin-4-ylacetyl)pyrrolidin-3-yl]phenyl}-3-(pyridin-3-yl)azetidine-1-carboxamide]
40.9 nM | 0.188 nM | 35.1 nM | O=C(Nc1ccc(C2CCN(C(=O)c3ccoc3)C2)cc1)N1CC(c2cccnc2)C1 (stereo not drawn) [Example 264, N-{4-[1-(furan-3-ylcarbonyl)pyrrolidin-3-yl]phenyl}-3-(pyridin-3-yl)azetidine-1-carboxamide]
22.5 nM | 0.297 nM | 17.8 nM | O=C(Nc1ccc(C2CCN(C(=O)c3nccs3)C2)cc1)N1CC(c2cccnc2)C1 (stereo not drawn) [Example 267, 3-(pyridin-3-yl)-N-{4-[1-(1,3-thiazol-2-ylcarbonyl)pyrrolidin-3-yl]phenyl}azetidine-1-carboxamide]
36.5 nM | 0.225 nM | 22.8 nM | O=C(Nc1ccc(C2CCN(C(=O)c3ccsc3)C2)cc1)N1CC(c2cccnc2)C1 (stereo not drawn) [Example 268, 3-(pyridin-3-yl)-N-{4-[1-(thiophen-3-ylcarbonyl)pyrrolidin-3-yl]phenyl}azetidine-1-carboxamide]
8.17 nM | 0.196 nM | 19.5 nM | Cc1ccsc1C(=O)N1CCC(c2ccc(NC(=O)N3CC(c4cccnc4)C3)cc2)C1 (stereo not drawn) [Example 270, N-(4-{1-[(3-methylthiophen-2-yl)carbonyl]pyrrolidin-3-yl}phenyl)-3-(pyridin-3-yl)azetidine-1-carboxamide]
46.9 nM | 0.279 nM | 60.4 nM | O=C(CCC(F)(F)F)N1CCC(c2ccc(NC(=O)N3CC(c4cccnc4)C3)cc2)C1 (stereo not drawn) [Example 271, 3-(pyridin-3-yl)-N-{4-[1-(4,4,4-trifluorobutanoyl)pyrrolidin-3-yl]phenyl}azetidine-1-carboxamide]
90.7 nM | 0.241 nM | 222 nM | CN1CCN(CC(=O)N2CCC(c3ccc(NC(=O)N4CC(c5cccnc5)C4)cc3)C2)CC1 (stereo not drawn) [Example 272, N-(4-{1-[(4-methylpiperazin-1-yl)acetyl]pyrrolidin-3-yl}phenyl)-3-(pyridin-3-yl)azetidine-1-carboxamide]
82.2 nM | 0.264 nM | 68.5 nM | CCOCCC(=O)N1CCC(c2ccc(NC(=O)N3CC(c4cccnc4)C3)cc2)C1 (stereo not drawn) [Example 274, N-{4-[1-(3-ethoxypropanoyl)pyrrolidin-3-yl]phenyl}-3-(pyridin-3-yl)azetidine-1-carboxamide]
38.3 nM | 0.363 nM | 34.5 nM | CC(C)CCC(=O)N1CCC(c2ccc(NC(=O)N3CC(c4cccnc4)C3)cc2)C1 (stereo not drawn) [Example 275, N-{4-[1-(4-methylpentanoyl)pyrrolidin-3-yl]phenyl}-3-(pyridin-3-yl)azetidine-1-carboxamide]
12.4 nM | 0.347 nM | 10 nM | CC1(C(=O)N2CCC(c3ccc(NC(=O)N4CC(c5cccnc5)C4)cc3)C2)CCCCC1 (stereo not drawn) [Example 276, N-(4-{1-[(1-methylcyclohexyl)carbonyl]pyrrolidin-3-yl}phenyl)-3-(pyridin-3-yl)azetidine-1-carboxamide]
19.7 nM | 0.213 nM | 30.6 nM | O=C(CC1CCCCC1)N1CCC(c2ccc(NC(=O)N3CC(c4cccnc4)C3)cc2)C1 (stereo not drawn) [Example 278, N-{4-[1-(cyclohexylacetyl)pyrrolidin-3-yl]phenyl}-3-(pyridin-3-yl)azetidine-1-carboxamide]
92.1 nM | 0.204 nM | 47.6 nM | CCC(=O)N1CCC(c2ccc(NC(=O)N3CC(c4cccnc4)C3)cc2)C1 (stereo not drawn) [Example 279, N-[4-(1-propanoylpyrrolidin-3-yl)phenyl]-3-(pyridin-3-yl)azetidine-1-carboxamide]
26.6 nM | 0.219 nM | 14.3 nM | CC(C)(C)C(=O)N1CCC(c2ccc(NC(=O)N3CC(c4cccnc4)C3)cc2)C1 (stereo not drawn) [Example 282, N-{4-[1-(2,2-dimethylpropanoyl)pyrrolidin-3-yl]phenyl}-3-(pyridin-3-yl)azetidine-1-carboxamide]
